Legend:
[1] = biological target: Sodium-dependent dopamine transporter (Rattus norvegicus, UniProt P23977); test: Inhibitory activity against Dopamine transporter using 0.5 nM [3H]WIN-35428 as radioligand
[2] = biological target: Norepinephrine transporter (Rattus norvegicus, UniProt Q9WTR4); test: Inhibitory activity against Norepinephrine transporter using 0.5 nM [3H]-radioligand
[3] = biological target: Sodium-dependent serotonin transporter (Rattus norvegicus, UniProt P31652); test: Inhibitory activity against Serotonin transporter using 0.2 nM [3H]paroxetine as radioligand
Sodium-dependent serotonin transporter, sequence (P31652 whole entry): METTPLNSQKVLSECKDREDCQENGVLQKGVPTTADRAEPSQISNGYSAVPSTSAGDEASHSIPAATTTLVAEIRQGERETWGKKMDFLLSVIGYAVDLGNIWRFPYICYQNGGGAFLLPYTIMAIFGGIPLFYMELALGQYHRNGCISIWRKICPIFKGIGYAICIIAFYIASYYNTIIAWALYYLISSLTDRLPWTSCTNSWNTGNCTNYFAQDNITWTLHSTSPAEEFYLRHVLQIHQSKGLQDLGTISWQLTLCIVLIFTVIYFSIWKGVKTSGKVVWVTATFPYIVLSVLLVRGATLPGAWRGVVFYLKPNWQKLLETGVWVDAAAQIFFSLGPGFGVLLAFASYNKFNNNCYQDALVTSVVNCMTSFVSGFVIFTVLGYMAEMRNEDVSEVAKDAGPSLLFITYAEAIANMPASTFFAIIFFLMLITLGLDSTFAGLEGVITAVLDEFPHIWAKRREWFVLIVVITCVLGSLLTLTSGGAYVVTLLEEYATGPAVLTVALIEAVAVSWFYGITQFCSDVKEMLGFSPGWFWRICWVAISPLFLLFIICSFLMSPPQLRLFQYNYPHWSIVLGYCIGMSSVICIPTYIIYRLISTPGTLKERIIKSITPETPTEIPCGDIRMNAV

Sodium-dependent dopamine transporter, sequence (P23977 whole entry): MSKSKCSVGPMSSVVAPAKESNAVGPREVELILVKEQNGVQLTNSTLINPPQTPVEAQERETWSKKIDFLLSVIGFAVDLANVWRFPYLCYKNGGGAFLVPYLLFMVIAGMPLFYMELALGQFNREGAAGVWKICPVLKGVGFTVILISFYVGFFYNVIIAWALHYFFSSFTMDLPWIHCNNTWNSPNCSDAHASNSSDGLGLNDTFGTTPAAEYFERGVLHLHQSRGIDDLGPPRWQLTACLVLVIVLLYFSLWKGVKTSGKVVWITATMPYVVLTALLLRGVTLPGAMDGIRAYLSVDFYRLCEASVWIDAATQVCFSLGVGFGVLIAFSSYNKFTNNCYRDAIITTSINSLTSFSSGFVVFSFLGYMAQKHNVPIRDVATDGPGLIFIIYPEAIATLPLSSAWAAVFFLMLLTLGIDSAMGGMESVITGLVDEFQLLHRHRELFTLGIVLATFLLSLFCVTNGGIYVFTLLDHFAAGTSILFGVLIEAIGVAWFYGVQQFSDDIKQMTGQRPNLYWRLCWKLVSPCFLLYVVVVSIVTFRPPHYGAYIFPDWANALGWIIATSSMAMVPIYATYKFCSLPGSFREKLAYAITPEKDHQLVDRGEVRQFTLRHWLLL
Norepinephrine transporter, sequence (Q9WTR4 whole entry): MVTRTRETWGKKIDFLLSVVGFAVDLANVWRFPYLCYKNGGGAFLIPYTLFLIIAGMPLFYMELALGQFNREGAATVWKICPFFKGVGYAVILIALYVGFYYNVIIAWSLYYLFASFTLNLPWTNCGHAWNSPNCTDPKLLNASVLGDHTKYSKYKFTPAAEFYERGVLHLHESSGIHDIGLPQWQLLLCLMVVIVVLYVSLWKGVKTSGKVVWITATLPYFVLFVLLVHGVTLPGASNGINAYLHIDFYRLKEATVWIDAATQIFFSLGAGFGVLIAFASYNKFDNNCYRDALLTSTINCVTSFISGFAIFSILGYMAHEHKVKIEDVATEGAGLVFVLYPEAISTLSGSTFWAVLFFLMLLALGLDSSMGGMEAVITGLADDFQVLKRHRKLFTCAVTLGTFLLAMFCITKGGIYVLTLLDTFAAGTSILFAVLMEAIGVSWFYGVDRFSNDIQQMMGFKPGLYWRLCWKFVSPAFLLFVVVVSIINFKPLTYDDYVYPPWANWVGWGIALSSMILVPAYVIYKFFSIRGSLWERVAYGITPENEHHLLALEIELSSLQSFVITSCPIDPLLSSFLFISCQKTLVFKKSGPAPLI

SMILES | IC50 [1] | IC50 [2] | IC50 [3]
CN1[C@@H]2CC[C@H]1[C@@H](c1ccccc1)[C@@H](c1ccccc1)C2 (racemic) | 0.028 µM | 2.67 µM | 34.7 µM
CN1[C@@H]2CC[C@H]1[C@H](c1ccccc1)[C@H](c1ccccc1)C2 (racemic) |  | 2.77 µM | 18.6 µM
CN1[C@@H]2CC[C@@H]1C(O)(c1ccccc1)C(c1ccccc1)C2 (mixture of isomers) | 2.86 µM | > 175 µM | 37.2 µM
CN1C2CCC1C(c1ccccc1)=C(c1ccccc1)C2 (racemic) | 0.55 µM | 21.4 µM | 47.8 µM

From ChEMBL document CHEMBL1129994, “Synthesis and transporter binding properties of 2,3-diphenyltropane stereoisomers. Comparison to 3beta-phenyltropane-2beta-carboxylic acid esters” (J Med Chem, 1997)
